{"source": "patent US10556879B2", "about": "“Retinoid compound, preparation method therefor, intermediates thereof and application thereof” (SHANGHAI INSTITUTE OF ORGANIC CHEMISTRY, CHINESE ACADEMY OF …, priority 2016, dated 2020)", "system": "tumor-repopulating cells of B16-F1 melanoma", "assay": "Inhibitory activity on proliferation of tumor-repopulating cells (TRCs) of B16-F1 melanoma in 3D fibrin gel", "assay_type": "cell-based", "conditions": "for IC50: colony tumor volume, read-out: IC50 of inhibition on TRCs of B16-F1 melanoma/μM", "procedure": "B16-F1 Melanoma cells were incubated with 3D fibrin gel medium (90-Pa) for 5 days, and the desired tumor-repopulating cells of melanoma were screened (Nat. Mater. 2012, 11, 734). Subsequently, the culture medium was respectively treated with collagenase and neutral protease II, and the tumor-repopulating cells of B16-F1 melanoma were released, then the obtained repopulating cells were transferred to a freshly prepared medium to be resuspended and maintained at single-cell state. The tumor-repopulating cells of B16-F1 melanoma were inoculated in 3D fibrin gel medium (90-Pa) for 5 days, with 0.1% DMSO as the negative control group, Tazarotene and Bexarotene as the positive control drugs respectively, […] for 5 days. The colony tumor size was measured and calculated, and the inhibition rate of each drug on the tumor-repopulating cells of B16-F1 melanoma was calculated. The results of inhibitory activity of the compound of the present invention on the proliferation of tumor-repopulating cells of B16-F1 melanoma were shown in Table 2 below.", "key": {"[1]": {"conditions": "Mus musculus, B16-F1, 120 h, 10 μM, incubated 5 days, colony tumor size, read-out: Inhibition rate on TRCs of B16-F1 melanoma at a concentration of 10 μM (%)"}, "[2]": {"conditions": "Mus musculus, B16-F1, dose-response curve"}, "[3]": {"conditions": "Mus musculus, B16-F1, 10 μM (Table 3), read-out: Inhibition rate on TRCs of B16-F1 melanoma at a concentration of 10 μM/%"}}, "note": "Read-outs that look alike come from different tables or passages of the source.", "data": [{"smiles": "C=C(c1ccc(C(=O)O)cc1)c1cc2c(cc1C)C(C)(C)CCC2(C)C", "note": "[Bexarotene, reference compound]", "values": [{"measurement": "inhibition at 10 µM", "setting": "[1]", "result": 63.3, "unit": "%"}]}, {"smiles": "CCOC(=O)c1ccc(C#Cc2ccc3c(c2)C(C)(C)CCS3)nc1", "note": "[Tazarotene, reference compound]", "values": [{"measurement": "inhibition at 10 µM", "setting": "[1]", "result": 67.6, "unit": "%"}]}, {"smiles": "COC(=O)c1ccc(C#Cc2ccc3c(c2)C(C)(C)CCS3)cc1O", "note": "[WYC-101, methyl 4-((4,4-dimethylthiochroman-6-yl)ethynyl)-2-hydroxybenzoate]", "values": [{"measurement": "inhibition at 10 µM", "setting": "[1]", "result": 76, "unit": "%"}]}, {"smiles": "COC(=O)c1ccc(C#Cc2ccc3c(c2)C(C)(C)CCS3)cc1OC", "note": "[WYC-102, methyl 4-((4,4-dimethylthiochroman-6-yl)ethynyl)-2-methoxybenzoate]", "values": [{"measurement": "inhibition at 10 µM", "setting": "[1]", "result": 59.1, "unit": "%"}]}, {"smiles": "CC1(C)CCSc2ccc(C#Cc3ccc(C(=O)O)c(O)c3)cc21", "note": "[WYC-105, 4-((4,4-dimethylthiochroman-6-yl)ethynyl)-2-hydroxybenzoic Acid]", "values": [{"measurement": "inhibition at 10 µM", "setting": "Mus musculus, B16-F1, 120 h, read-out: Inhibition rate on TRCs of B16-F1 melanoma at a concentration of 10 μM (%)", "result": 64.1, "unit": "%"}]}, {"smiles": "COc1cc(C#Cc2ccc3c(c2)C(C)(C)CCS3)ccc1C(=O)O", "note": "[WYC-106]", "values": [{"measurement": "inhibition at 10 µM", "setting": "[1]", "result": 72.4, "unit": "%"}]}, {"smiles": "COC(=O)c1ccc(C#Cc2ccc3c(c2)C(C)(C)CCS3)c(O)c1", "note": "[WYC-107, methyl 4-((4,4-dimethylthiochroman-6-yl)ethynyl)-3-hydroxybenzoate]", "values": [{"measurement": "inhibition at 10 µM", "setting": "[1]", "result": 75, "unit": "%"}, {"measurement": "IC50", "setting": "[2]", "result": 2.12, "unit": "µM"}, {"measurement": "inhibition at 10 µM", "setting": "[3]", "result": 75, "unit": "%"}]}, {"smiles": "CC1(C)CCSc2ccc(C#Cc3cnc(C#N)nc3)cc21", "note": "[WYC-202, 2-cyano-5-((4,4-dimethylthiochroman-6-yl)ethynyl)pyrimidine]", "values": [{"measurement": "inhibition at 10 µM", "setting": "[1]", "result": 85.3, "unit": "%"}]}, {"smiles": "CCOC(=O)c1cnc(C#Cc2ccc3c(c2)C(C)(C)CCS3)nc1", "note": "[WYC-203, ethyl 2-((4,4-dimethylthiochroman-6-yl)ethynyl)pyrimidin-5-carboxylate]", "values": [{"measurement": "inhibition at 10 µM", "setting": "[1]", "result": 90.5, "unit": "%"}]}, {"smiles": "COC(=O)c1ncc(C#Cc2ccc3c(c2)C(C)(C)CCS3)cn1", "note": "[WYC-204, methyl 5-((4,4-dimethylthiochroman-6-yl)ethynyl)pyrimidin-2-carboxylate]", "values": [{"measurement": "inhibition at 10 µM", "setting": "[1]", "result": 25.6, "unit": "%"}]}, {"smiles": "CCOC(=O)c1ncc(C#Cc2ccc3c(c2)C(C)(C)CCS3)cn1", "note": "[WYC-205, ethyl 5-((4,4-dimethylthiochroman-6-yl)ethynyl)pyrimidin-2-carboxylate]", "values": [{"measurement": "inhibition at 10 µM", "setting": "[1]", "result": 91.5, "unit": "%"}]}, {"smiles": "CC1(C)CCSc2ccc(C#Cc3ncc(C(=O)O)cn3)cc21", "note": "[WYC-206, 2-((4,4-dimethylthiochroman-6-yl)ethynyl)pyrimidin-5-carboxylic acid]", "values": [{"measurement": "inhibition at 10 µM", "setting": "[1]", "result": 77.2, "unit": "%"}]}, {"smiles": "CC1(C)CC[S+]([O-])c2ccc(C#Cc3cnc(C#N)nc3)cc21", "note": "(stereo not shown) [WYC-207, 2-cyano-5-((4,4-dimethyl-1-oxothiochroman-6-yl)ethynyl)pyrimidine]", "values": [{"measurement": "inhibition at 10 µM", "setting": "[1]", "result": 92.5, "unit": "%"}, {"measurement": "IC50", "setting": "[2]", "result": 3.3, "unit": "µM"}, {"measurement": "inhibition at 10 µM", "setting": "[3]", "result": 92.5, "unit": "%"}]}, {"smiles": "CCOC(=O)c1ncc(C#Cc2ccc3c(c2)C(C)(C)CC[S+]3[O-])cn1", "note": "(stereo not shown) [WYC-208, ethyl 5-((4,4-dimethyl-1-oxothiochroman-6-yl)ethynyl)pyrimidin-2-carboxylate]", "values": [{"measurement": "inhibition at 10 µM", "setting": "[1]", "result": 27.7, "unit": "%"}]}, {"smiles": "CCOC(=O)c1cnc(C#Cc2ccc3c(c2)C(C)(C)CC[S@+]3[O-])nc1", "note": "[WYC-209A, ethyl 2-((4,4-dimethyl-1S-oxothiochroman-6-yl)ethynyl)pyrimidin-5-carboxylate]", "values": [{"measurement": "Inhibition rate on TRCs of B16-F1 melanoma at a concentration of 10 μM/%", "setting": "10 μM (Table 3)", "result": 98.9, "unit": "%"}, {"measurement": "Inhibition rate on TRCs of B16-F1 melanoma at a concentration of 10 μM (%)", "setting": "10 μM, incubated 5 days, colony tumor size", "result": 98.9, "unit": "%"}, {"measurement": "IC50", "setting": "dose-response curve", "result": 0.15, "unit": "µM"}]}, {"smiles": "CCOC(=O)c1cnc(C#Cc2ccc3c(c2)C(C)(C)CC[S@@+]3[O-])nc1", "note": "[WYC-209B, ethyl 2-((4,4-dimethyl-1R-oxothiochroman-6-yl)ethynyl)pyrimidin-5-carboxylate]", "values": [{"measurement": "inhibition at 10 µM", "setting": "[1]", "result": 98.7, "unit": "%"}, {"measurement": "IC50", "setting": "[2]", "result": 0.22, "unit": "µM"}, {"measurement": "inhibition at 10 µM", "setting": "[3]", "result": 98.7, "unit": "%"}]}, {"smiles": "CC1(C)CC[S+]([O-])c2ccc(C#Cc3ncc(C(=O)O)cn3)cc21", "note": "(stereo not shown) [WYC-210, 2-((4,4-dimethyl-1-oxothiochroman-6-yl)ethynyl)pyrimidin-5-carboxylic Acid]", "values": [{"measurement": "inhibition at 10 µM", "setting": "[1]", "result": 18.1, "unit": "%"}]}, {"smiles": "CC1(C)CCSc2ccc(C#Cc3ccc(C(=O)O)c(N)c3)cc21", "note": "[WYC-212, 2-amino-4-((4,4-dimethylthiochroman-6-yl)ethynyl)benzoic Acid]", "values": [{"measurement": "inhibition at 10 µM", "setting": "[1]", "result": 93.2, "unit": "%"}, {"measurement": "IC50", "setting": "[2]", "result": 2.28, "unit": "µM"}, {"measurement": "inhibition at 10 µM", "setting": "[3]", "result": 93.2, "unit": "%"}]}, {"smiles": "CC(=O)Nc1cc(C#Cc2ccc3c(c2)C(C)(C)CCS3)ccc1C(=O)O", "note": "[WYC-213, 2-acetamido-4-((4,4-dimethylthiochroman-6-yl)ethynyl)benzoic Acid]", "values": [{"measurement": "inhibition at 10 µM", "setting": "[1]", "result": 71.1, "unit": "%"}]}, {"smiles": "CC1(C)CC[S+]([O-])c2ccc(C#Cc3ccc(C(=O)O)c(N)c3)cc21", "note": "(stereo not shown) [WYC-214, 2-amino-4-((4,4-dimethyl-1-oxothiochroman-6-yl)ethynyl)benzoic Acid]", "values": [{"measurement": "inhibition at 10 µM", "setting": "[1]", "result": 51.6, "unit": "%"}]}, {"smiles": "COC(=O)c1ccc(C#Cc2ccc3c(c2)C(C)(C)CC[S+]3[O-])cc1N", "note": "(stereo not shown) [WYC-215, methyl 2-amino-4-((4,4-dimethyl-1-oxothiochroman-6-yl)ethynyl)benzoate]", "values": [{"measurement": "inhibition at 10 µM", "setting": "[1]", "result": 80.2, "unit": "%"}]}, {"smiles": "CCOC(=O)c1ccc(C#Cc2ccc3c(c2)C(C)(C)CCS3)cc1N", "note": "[WYC-216, ethyl 2-amino-4-((4,4-dimethylthiochroman-6-yl)ethynyl)benzoate]", "values": [{"measurement": "inhibition at 10 µM", "setting": "[1]", "result": 84, "unit": "%"}]}, {"smiles": "CCOC(=O)c1ccc(C#Cc2ccc3c(c2)C(C)(C)CCS3)cc1NC(C)=O", "note": "[WYC-217, ethyl 2-acetamido-4-((4,4-dimethylthiochroman-6-yl)ethynyl)benzoate]", "values": [{"measurement": "inhibition at 10 µM", "setting": "[1]", "result": 90.3, "unit": "%"}]}, {"smiles": "CCOC(=O)c1ccc(C#Cc2ccc3c(c2)C(C)(C)CC[S+]3[O-])cc1N", "note": "(stereo not shown) [WYC-218, ethyl 2-amino-4-((4,4-dimethyl-1-oxothiochroman-6-yl)ethynyl)benzoate]", "values": [{"measurement": "inhibition at 10 µM", "setting": "[1]", "result": 90.4, "unit": "%"}]}, {"smiles": "CNc1cc(C#Cc2ccc3c(c2)C(C)(C)CCS3)ccc1C(=O)OC", "note": "[WYC-219, methyl 2-methylamino-4-((4,4-dimethylthiochroman-6-yl)ethynyl)benzoate]", "values": [{"measurement": "inhibition at 10 µM", "setting": "[1]", "result": 64.8, "unit": "%"}]}, {"smiles": "COC(=O)c1ccc(C#Cc2ccc3c(c2)C(C)(C)CCS3)cc1N", "note": "[WYC-220, methyl 2-amino-4-((4,4-dimethylthiochroman-6-yl)ethynyl)benzoate]", "values": [{"measurement": "inhibition at 10 µM", "setting": "[1]", "result": 65.5, "unit": "%"}]}, {"smiles": "COC(=O)c1ccc(C#Cc2ccc3c(c2)C(c2ccccc2)=CCC3(C)C)cc1O", "note": "[WYC-301, methyl 4-((5,5-dimethyl-8-phenyl-5,6-dihydronaphth-2-yl)ethynyl)-2-hydroxybenzoate]", "values": [{"measurement": "inhibition at 10 µM", "setting": "[1]", "result": 34.4, "unit": "%"}]}, {"smiles": "CCOC(=O)c1ccc(C#Cc2ccc3c(c2)C(c2ccccc2)=CCC3(C)C)cc1O", "note": "[WYC-302, ethyl 4-((5,5-dimethyl-8-phenyl-5,6-dihydronaphth-2-yl)ethynyl)-2-hydroxybenzoate]", "values": [{"measurement": "inhibition at 10 µM", "setting": "[1]", "result": 21.9, "unit": "%"}]}, {"smiles": "CCOC(=O)c1ccc(C#Cc2ccc3c(c2)C(C)(C)CCS3)cc1F", "note": "[WYC-303, ethyl 2-fluoro-4-((4,4-dimethylthiochroman-6-yl)ethynyl)benzoate]", "values": [{"measurement": "inhibition at 10 µM", "setting": "[1]", "result": 71.1, "unit": "%"}]}, {"smiles": "CC1(C)CCSc2ccc(C#Cc3ccc(C(=O)O)c(F)c3)cc21", "note": "[WYC-304, 2-fluoro-4-((4,4-dimethylthiochroman-6-yl)ethynyl)benzoic Acid]", "values": [{"measurement": "inhibition at 10 µM", "setting": "[1]", "result": 75.8, "unit": "%"}]}, {"smiles": "CCOC(=O)c1ccc(C#Cc2ccc3c(c2)C(c2ccccc2)=CCC3(C)C)cc1F", "note": "[WYC-305, ethyl 4-((5,5-dimethyl-8-phenyl-5,6-dihydronaphth-2-yl)ethynyl)-2-fluorobenzoate]", "values": [{"measurement": "inhibition at 10 µM", "setting": "[1]", "result": 26, "unit": "%"}]}, {"smiles": "CC1(C)CC=C(c2ccccc2)c2cc(C#Cc3ccc(C(=O)O)c(F)c3)ccc21", "note": "[WYC-306, 4-((5,5-dimethyl-8-phenyl-5,6-dihydronaphth-2-yl)ethynyl)-2-fluorobenzic Acid]", "values": [{"measurement": "inhibition at 10 µM", "setting": "[1]", "result": 15.2, "unit": "%"}]}, {"smiles": "CCOC(=O)c1ccc(C#Cc2ccc3c(c2)C(C)(C)CCS3)c(F)c1", "note": "[WYC-307, ethyl 3-fluoro-4-((4,4-dimethylthiochroman-6-yl)ethynyl)benzoate]", "values": [{"measurement": "inhibition at 10 µM", "setting": "[1]", "result": 70.3, "unit": "%"}]}]}
